Where two headings read alike, the source gives them in different places.
Key:
[1] = target: AM2 V27A (valine→alanine mutation at residue 27 in the M2 protein) (Influenza A virus, UniProt P0DOF5, V27A); format: cell-based, influenza virus A/Udorn/72
[2] = target: AM2 S31N (serine→asparagine mutation at residue 31 in the M2 protein) (Influenza A virus, UniProt P0DOF5, S31N); format: cell-based, influenza virus A/Udorn/72

| SMILES | V27A OOcyte Inhibition at 100 uM (%) [1] | S31N OOcyte Inhibition at 100 uM (%) [2] | V27A OOcyte Inhibition at 100 uM (%) ([1]; pH 5.5) | S31N OOcyte Inhibition at 100 uM (%) ([2]; pH 5.5) |
| --- | --- | --- | --- | --- |
| CCc1ccc(CNC23CC4CC(CC(C4)C2)C3)s1 [Example 98a, N-((5-ethylthiophen-2-yl)methyl)adamantan-1-amine] | B (key: (A)=31-95%; (B)=0-30%) | A (key: (A)=31-95%; (B)=0-30%) | – | – |
| OC1CCN(C2C3CC4CC(C3)CC2C4)CC1 (stereo not drawn) [Example 104, 1-Adamantan-2-yl-piperidin-4-ol] | – | – | B (key: (A)=31-95%; (B)=0-30%) | B (key: (A)=31-95%; (B)=0-30%) |
| c1nc(-c2ccc(CNC34CC5CC(CC(C5)C3)C4)cc2)no1 [Example 40, Adamantan-1-yl-(4-[1,2,4]oxadiazol-3-yl-benzyl)-amine] | – | – | B (key: (A)=31-95%; (B)=0-30%) | A (key: (A)=31-95%; (B)=0-30%) |
| CC(NC12CC3CC(CC(C3)C1)C2)c1ccc(I)s1 (stereo not drawn) [Example 82a, N-(1-(5-iodothiophen-2-yl)ethyl)adamantan-1-amine] | A (key: (A)=31-95%; (B)=0-30%) | B (key: (A)=31-95%; (B)=0-30%) | – | – |
| c1cnn(-c2ccc(CNC34CC5CC(CC(C5)C3)C4)cc2)c1 [Example 35, Adamantan-1-yl-(4-pyrazol-1-yl-benzyl)-amine] | – | – | B (key: (A)=31-95%; (B)=0-30%) | B (key: (A)=31-95%; (B)=0-30%) |
| Oc1ccc(/C=N/C23CC4CC(CC(C4)C2)C3)cc1 [Example 6] | – | – | B (key: (A)=31-95%; (B)=0-30%) | B (key: (A)=31-95%; (B)=0-30%) |
| CC(=O)Oc1ccc(CNC23CC4CC(CC(C4)C2)C3)cc1 [Example 33, Acetic acid 4-(adamantan-1-ylaminomethyl)-phenyl ester] | – | – | B (key: (A)=31-95%; (B)=0-30%) | A (key: (A)=31-95%; (B)=0-30%) |
| Oc1ccc(CNC2C3CC4CC(C3)CC2C4)cc1 (stereo not drawn) [Example 99, 4-(Adamantan-2-ylaminomethyl)-phenol] | – | – | B (key: (A)=31-95%; (B)=0-30%) | B (key: (A)=31-95%; (B)=0-30%) |
| OC12CC3CC(C1)CC(NCc1ccc(-c4ccccc4)s1)(C3)C2 [Example 191a, 3-[(5-Phenyl-thiophen-2-ylmethyl)-amino]adamantan-1-ol] | B (key: (A)=31-95%; (B)=0-30%) | A (key: (A)=31-95%; (B)=0-30%) | – | – |
| c1ccc2sc(CNC34CC5CC(CC(C5)C3)C4)cc2c1 [Example 88, Adamantan-1-yl-benzo[b]thiophen-2-ylmethyl-amine] | – | – | B (key: (A)=31-95%; (B)=0-30%) | A (key: (A)=31-95%; (B)=0-30%) |
| OC12CC3CC(C1)CC(NCc1cccs1)(C3)C2 [Example 187a, 3-[(Thiophen-2-ylmethyl)-amino]adamantan-1-ol] | B (key: (A)=31-95%; (B)=0-30%) | A (key: (A)=31-95%; (B)=0-30%) | – | – |
| Oc1ccc(CN2CC3CC4CC(C3)CC2C4)c(O)c1 [Example 116, 4-(4-Aza-tricyclo[4.3.1.13,8]undec-4-ylmethyl)-benzene-1,3-diol] | – | – | A (key: (A)=31-95%; (B)=0-30%) | B (key: (A)=31-95%; (B)=0-30%) |
| c1cc(CNC23CC4CC(CC(C4)C2)C3)co1 [Example 66a, Adamantan-1-yl-furan-3-ylmethyl-amine] | B (key: (A)=31-95%; (B)=0-30%) | B (key: (A)=31-95%; (B)=0-30%) | – | – |
| Oc1cc(-c2ccccc2)ccc1CNC12CC3CC(CC(C3)C1)C2 [Example 47a, 4-(Adamantan-1-ylaminomethyl)-biphenyl-3-ol] | B (key: (A)=31-95%; (B)=0-30%) | A (key: (A)=31-95%; (B)=0-30%) | – | – |
| O=C(Oc1ccc(CNC23CC4CC(CC(C4)C2)C3)cc1)C1CC1 [Example 34, Cyclopropanecarboxylic acid 4-(adamantan-1-ylaminomethyl)-phenyl ester] | – | – | B (key: (A)=31-95%; (B)=0-30%) | B (key: (A)=31-95%; (B)=0-30%) |
